Structures can show the parent of a compound that is named as a salt.
What was measured:
CDK8/CyclinC = target: T1, CDK8/CyclinC (Homo sapiens, UniProt P49336); assay: ADP-Glo Kinase Assay, CDK8/CyclinC; assay type: biochemical; conditions: read-out: % inhibition at 1 μM CDK8/CyclinC; note: ATP at apparent Km (53 µM)
T1 construct: purchased ProQinase, Freiburg, Germany
Description: (§1) Testing of the compounds described in this invention was carried out using the ADP-Glo™ Kinase Assay from Promega Corporation (Madison, Wis., USA).
(§2) The ADP-Glo™ Kinase Assay is a luminescent ADP detection assay to measure kinase activity by quantifying the amount of ADP produced during a kinase reaction. The kinase assay is performed in kinase assay buffer (5 mM MOPS, pH 7.5, 5 mM MgCl2, 0.4 mM EDTA, 1.5 mM DTT). Test samples initially dissolved in DMSO at 10 mM were diluted with the assay buffer to 1000 nM. A 30 μL volume/well of a mixture of substrates containing ATP (final ATP concentration in each kinase assay was equal to its apparent ATP Km).
(§3) The assay was performed in two steps: first, after the kinase reaction, an equal volume of ADP-Glo™ Reagent was added to terminate the kinase reaction and deplete the remaining ATP. Second, the Kinase Detection Reagent was added to simultaneously convert ADP to ATP and allowed the newly synthesized ATP to be measured using a luciferase/luciferin reaction. The luminescent signal generated was proportional to the ADP concentration produced and was correlated with kinase activity.

SW480 cells = assay: MTS viability assay, SW480; assay type: cell-based; conditions: Homo sapiens, SW480, 72 hour incubation, read-out: IC50 [μM] SW-480 ED50
Description: (§4) The viability of CDK8 expressing cells can be evaluated using a tetrazolium salt reduction cell-based assay. In viable cells this colorimetric assay can measure mitochondrial reduction of a tetrazolium component (MTS) into an […] formazan product. For MTS viability assay, human colon cancer cell lines were used (SW480 and HCT116 cell lines), containing elevated levels of CDK8 protein and highly dependent on its expression for proliferation [see, Firenstein et al. Nature 455 (25):547-551, (2008)]. These cell lines were used to determine the activity of the compounds provided herein to inhibit CDK8 in intact cells. Human tumor cell lines were obtained from ATCC (Rockville Md. USA). In each case, and by methods known to those practiced in the art of cell culture, vaiability was measured after 72 hour incubation with the compounds provided herein using a standard MTS protocol (CellTiter 96® AQueous Non-Radioactive Cell Proliferation Assay).
(§5) Briefly, cells were plated at 10,000-20,000 cells per well in DMEM medium supplemented with 10% fetal bovine serum. The compound plate was set up by aliquoting into column 1 of a 96-well plate, the negative control (DMSO), aliquoting into column 12 the positive control, and titrating the test compound in serial dilutions into columns 2-11. An aliquot from each well of the compound plate was transferred to the plated cells and then incubated at 37° C. in 5% CO2. 20 μL of MTS tetrazolium was added to each well of optical plate and the cells were incubated at 37° C. in 5% CO2 for 2 hours. The absorbance was measured at 490 nm using a microplate reader.

CDK7/CyclinH/MAT1 = target: T2, CDK7/CyclinH/MAT1 (Homo sapiens, UniProt P50613); assay: ADP-Glo Kinase Assay, CDK7/CyclinH/MAT1; assay type: biochemical; conditions: read-out: % inhibition at 1 μM CDK7/CyclinH/MAT1
T2 construct: purchased Millipore, Billerica, Mass., USA
T2 sequence (P50613 whole entry): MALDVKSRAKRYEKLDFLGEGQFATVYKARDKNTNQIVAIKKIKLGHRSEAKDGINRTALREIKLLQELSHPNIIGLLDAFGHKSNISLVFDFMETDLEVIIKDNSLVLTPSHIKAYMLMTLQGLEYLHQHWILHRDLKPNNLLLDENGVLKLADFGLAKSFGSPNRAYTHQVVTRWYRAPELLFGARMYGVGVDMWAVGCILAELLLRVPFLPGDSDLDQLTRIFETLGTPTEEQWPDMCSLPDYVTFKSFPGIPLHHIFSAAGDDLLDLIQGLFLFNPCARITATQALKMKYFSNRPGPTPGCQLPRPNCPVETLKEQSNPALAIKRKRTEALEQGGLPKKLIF
T2 sequence (P51946 whole entry partner): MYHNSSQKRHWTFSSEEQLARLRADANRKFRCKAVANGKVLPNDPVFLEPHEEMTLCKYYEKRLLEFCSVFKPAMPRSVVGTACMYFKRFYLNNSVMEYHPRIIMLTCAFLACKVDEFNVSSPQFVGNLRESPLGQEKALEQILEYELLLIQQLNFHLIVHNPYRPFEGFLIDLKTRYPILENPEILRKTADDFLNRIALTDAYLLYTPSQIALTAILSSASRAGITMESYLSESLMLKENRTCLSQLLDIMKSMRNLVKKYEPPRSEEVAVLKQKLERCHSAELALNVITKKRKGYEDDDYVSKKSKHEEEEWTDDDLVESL
T2 sequence (P51948 whole entry partner): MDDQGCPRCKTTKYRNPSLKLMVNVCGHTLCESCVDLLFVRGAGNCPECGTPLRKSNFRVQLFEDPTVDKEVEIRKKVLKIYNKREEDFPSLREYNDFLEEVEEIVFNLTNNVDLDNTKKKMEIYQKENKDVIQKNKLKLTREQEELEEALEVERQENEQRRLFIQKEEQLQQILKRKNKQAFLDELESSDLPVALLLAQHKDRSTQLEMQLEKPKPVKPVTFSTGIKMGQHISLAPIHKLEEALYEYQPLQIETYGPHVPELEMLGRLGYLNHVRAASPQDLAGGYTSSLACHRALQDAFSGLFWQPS
Description: as §1, §2, §3

CDK1/CyclinB = target: T3, CDK1/CyclinB (Homo sapiens, UniProt P06493); assay: ADP-Glo Kinase Assay, CDK1/CyclinB; assay type: biochemical; conditions: read-out: % inhibition at 1 μM CDK1/CyclinB; note: ATP at apparent Km (20 µM)
T3 construct: purchased Millipore, Billerica, Mass., USA
T3 sequence (P06493 whole entry): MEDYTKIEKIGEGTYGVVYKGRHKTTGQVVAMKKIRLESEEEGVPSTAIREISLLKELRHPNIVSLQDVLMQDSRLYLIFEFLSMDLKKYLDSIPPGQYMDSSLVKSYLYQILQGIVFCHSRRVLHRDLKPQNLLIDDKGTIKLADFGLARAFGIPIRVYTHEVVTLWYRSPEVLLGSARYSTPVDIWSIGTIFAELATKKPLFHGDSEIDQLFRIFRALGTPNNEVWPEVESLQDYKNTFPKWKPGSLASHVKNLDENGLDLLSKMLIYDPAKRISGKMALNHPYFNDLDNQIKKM
T3 sequence (P14635 whole entry partner): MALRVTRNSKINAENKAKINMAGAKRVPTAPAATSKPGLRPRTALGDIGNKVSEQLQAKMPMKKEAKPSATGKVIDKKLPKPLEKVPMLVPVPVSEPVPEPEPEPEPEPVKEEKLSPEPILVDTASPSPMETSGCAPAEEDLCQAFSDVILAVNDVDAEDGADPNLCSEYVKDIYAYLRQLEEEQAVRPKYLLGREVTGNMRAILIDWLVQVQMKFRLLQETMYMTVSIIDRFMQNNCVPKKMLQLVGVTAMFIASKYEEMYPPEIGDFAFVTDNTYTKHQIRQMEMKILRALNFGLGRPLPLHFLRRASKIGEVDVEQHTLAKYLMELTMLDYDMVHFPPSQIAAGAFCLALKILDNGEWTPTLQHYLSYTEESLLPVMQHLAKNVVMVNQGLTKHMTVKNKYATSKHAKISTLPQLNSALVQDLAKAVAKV
Description: Testing of the compounds described in this invention was carried out using the ADP-Glo™ Kinase Assay from Promega Corporation (Madison, Wis., USA). […] The ADP-Glo™ Kinase Assay is a luminescent ADP detection assay to measure kinase activity by quantifying the amount of ADP produced during a kinase reaction. The kinase assay is performed in kinase assay buffer (5 mM MOPS, pH 7.5, 5 mM MgCl2, 0.4 mM EDTA, 1.5 mM DTT). Test samples initially dissolved in DMSO at 10 mM were diluted with the assay buffer to 1000 nM. A 30 μL volume/well of a mixture of substrates containing ATP (final ATP concentration in each kinase assay was equal to its apparent ATP Km). […] The assay was performed in two steps: first, after the kinase reaction, an equal volume of ADP-Glo™ Reagent was added to terminate the kinase reaction and deplete the remaining ATP. Second, the Kinase Detection Reagent was added to simultaneously convert ADP to ATP and allowed the newly synthesized ATP to be measured using a luciferase/luciferin reaction. The luminescent signal generated was proportional to the ADP concentration produced and was correlated with kinase activity.

CDK9/CyclinT = target: T4, CDK9/CyclinT (Homo sapiens, UniProt P50750); assay: ADP-Glo Kinase Assay, CDK9/CyclinT; assay type: biochemical; conditions: read-out: % inhibition at 1 μM CDK9/CyclinT; note: ATP at apparent Km (26 µM)
T4 construct: purchased Proqinase, Freiburg, Germany
T4 sequence (P50750 whole entry): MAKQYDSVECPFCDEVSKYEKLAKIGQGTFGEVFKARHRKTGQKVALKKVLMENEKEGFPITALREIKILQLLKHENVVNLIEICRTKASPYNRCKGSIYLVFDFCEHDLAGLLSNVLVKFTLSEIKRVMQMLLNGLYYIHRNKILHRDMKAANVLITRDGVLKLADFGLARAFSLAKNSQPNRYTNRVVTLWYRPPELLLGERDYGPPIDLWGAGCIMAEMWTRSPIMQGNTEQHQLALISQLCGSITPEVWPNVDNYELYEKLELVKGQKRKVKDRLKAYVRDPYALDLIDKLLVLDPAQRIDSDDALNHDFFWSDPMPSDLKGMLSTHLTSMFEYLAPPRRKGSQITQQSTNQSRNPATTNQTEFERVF
T4 sequence (O60563 whole entry partner): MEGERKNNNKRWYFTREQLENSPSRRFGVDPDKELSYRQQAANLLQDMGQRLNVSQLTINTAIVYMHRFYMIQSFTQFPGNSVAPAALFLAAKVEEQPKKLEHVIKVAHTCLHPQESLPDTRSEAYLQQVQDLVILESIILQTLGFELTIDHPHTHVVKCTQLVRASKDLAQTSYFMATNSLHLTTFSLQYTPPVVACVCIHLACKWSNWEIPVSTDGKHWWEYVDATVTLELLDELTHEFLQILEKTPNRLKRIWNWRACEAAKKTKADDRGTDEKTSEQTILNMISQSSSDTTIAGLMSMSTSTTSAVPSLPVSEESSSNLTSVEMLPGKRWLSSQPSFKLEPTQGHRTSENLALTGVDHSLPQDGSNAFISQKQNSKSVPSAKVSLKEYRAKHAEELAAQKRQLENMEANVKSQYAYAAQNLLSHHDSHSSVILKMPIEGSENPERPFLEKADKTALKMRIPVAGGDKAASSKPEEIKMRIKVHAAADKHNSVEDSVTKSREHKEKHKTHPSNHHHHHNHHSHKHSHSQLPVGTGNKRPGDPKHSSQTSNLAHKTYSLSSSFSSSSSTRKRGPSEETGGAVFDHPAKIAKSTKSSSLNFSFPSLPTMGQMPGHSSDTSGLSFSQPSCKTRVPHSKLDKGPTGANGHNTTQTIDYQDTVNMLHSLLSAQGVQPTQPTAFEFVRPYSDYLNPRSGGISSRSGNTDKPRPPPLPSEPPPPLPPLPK
Description: as §1, §2, §3

CDK5/p25 = target: T5, CDK5/p25 (Homo sapiens, UniProt Q00535); assay: ADP-Glo Kinase Assay, CDK5/p25; assay type: biochemical; conditions: read-out: % inhibition at 1 μM CDK5/p25; note: ATP at apparent Km (12 µM)
T5 construct: purchased Millipore, Billerica, Mass., USA
T5 sequence (Q00535 whole entry): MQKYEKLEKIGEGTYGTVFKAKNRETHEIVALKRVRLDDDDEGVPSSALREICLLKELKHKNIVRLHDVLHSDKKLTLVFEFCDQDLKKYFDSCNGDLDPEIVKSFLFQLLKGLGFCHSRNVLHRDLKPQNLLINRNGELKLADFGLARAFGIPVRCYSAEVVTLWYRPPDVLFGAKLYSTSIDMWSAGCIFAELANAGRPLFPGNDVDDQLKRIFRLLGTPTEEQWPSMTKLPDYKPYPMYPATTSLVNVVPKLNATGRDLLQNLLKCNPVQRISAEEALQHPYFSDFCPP
T5 sequence (Q15078 99-307 partner limits assumed): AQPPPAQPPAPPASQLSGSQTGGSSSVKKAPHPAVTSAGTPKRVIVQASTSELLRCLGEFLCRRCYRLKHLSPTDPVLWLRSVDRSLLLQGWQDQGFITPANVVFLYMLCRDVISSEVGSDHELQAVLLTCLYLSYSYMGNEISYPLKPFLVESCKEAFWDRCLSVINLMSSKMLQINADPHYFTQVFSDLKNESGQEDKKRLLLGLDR
Description: as §1, §2, §3

CDK2/CyclinE = target: T6, CDK2/CyclinE (Homo sapiens, UniProt P24941); assay: ADP-Glo Kinase Assay, CDK2/CyclinE; assay type: biochemical; conditions: read-out: % inhibition at 1 μM CDK2/CyclinE
T6 construct: purchased Millipore, Billerica, Mass., USA
Description: as §1, §2, §3

HCT116 cells = assay: MTS viability assay, HCT116; assay type: cell-based; conditions: Homo sapiens, HCT-116, HCT116, 72 hour incubation, read-out: IC50 [μM] HCT116 ED50
Description: as §4, §5

T1 sequence (P49336 whole entry): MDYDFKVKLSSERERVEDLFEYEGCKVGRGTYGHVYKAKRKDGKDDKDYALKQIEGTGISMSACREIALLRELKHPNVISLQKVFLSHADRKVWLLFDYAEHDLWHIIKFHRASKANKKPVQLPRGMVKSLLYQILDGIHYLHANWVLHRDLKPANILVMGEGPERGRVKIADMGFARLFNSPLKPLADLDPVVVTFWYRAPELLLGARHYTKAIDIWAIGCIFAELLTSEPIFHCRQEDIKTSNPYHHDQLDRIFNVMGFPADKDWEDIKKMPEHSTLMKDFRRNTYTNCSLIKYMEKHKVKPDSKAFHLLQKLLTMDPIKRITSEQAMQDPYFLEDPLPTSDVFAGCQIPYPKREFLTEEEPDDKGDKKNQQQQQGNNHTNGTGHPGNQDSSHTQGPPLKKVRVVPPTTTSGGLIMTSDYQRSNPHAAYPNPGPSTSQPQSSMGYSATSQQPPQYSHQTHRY
T1 sequence (P24863 whole entry partner): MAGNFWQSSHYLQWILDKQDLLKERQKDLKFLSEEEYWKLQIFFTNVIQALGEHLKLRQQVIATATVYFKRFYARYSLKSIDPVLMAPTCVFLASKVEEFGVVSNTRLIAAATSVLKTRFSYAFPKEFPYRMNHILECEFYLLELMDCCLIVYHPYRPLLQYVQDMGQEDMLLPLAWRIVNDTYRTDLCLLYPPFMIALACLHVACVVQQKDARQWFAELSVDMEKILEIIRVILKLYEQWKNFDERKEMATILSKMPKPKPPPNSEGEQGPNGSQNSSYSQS

What does the source list for `Brc1c(Br)c2c3c(nc(C4CCNCC4)n3CCC2)c1Br` [Example 7E]?
inhibition at 1 µM (CDK8/CyclinC): 94%; IC50 (SW480 cells): 0.6 µM; inhibition at 1 µM (CDK7/CyclinH/MAT1): 15%; inhibition at 1 µM (CDK1/CyclinB): 43%; inhibition at 1 µM (CDK9/CyclinT): 39%; inhibition at 1 µM (CDK5/p25): 5%; inhibition at 1 µM (CDK2/CyclinE): 22%; IC50 (HCT116 cells): 0.3 µM

Which inhibition at 1 µM (CDK8/CyclinC) does the source give for `NCCNc1nc2c(Br)c(Br)c(Br)c3c2n1CCC3` [Example 1A, N-(7,8,9-tribromo-5,6-dihydro-4H-imidazo[4,5,1-ij]quinolin-2-yl)ethane-1,2-diamine hydrochloride] here?
Its inhibition at 1 µM is 52%.

What about the IC50 (SW480 cells) of the same compound?
Its IC50 is 1.9 µM.

And the inhibition at 1 µM (CDK7/CyclinH/MAT1)?
The inhibition at 1 µM was 0%.

What about the inhibition at 1 µM (CDK1/CyclinB) of the same compound?
The inhibition at 1 µM was 0%.

What about the inhibition at 1 µM (CDK9/CyclinT) of the same compound?
The inhibition at 1 µM was 33%.

And the inhibition at 1 µM (CDK5/p25)?
The inhibition at 1 µM was 0%.

And the inhibition at 1 µM (CDK2/CyclinE)?
The inhibition at 1 µM was 0%.

And the IC50 (HCT116 cells)?
Its IC50 is 1.2 µM.

What does the source list for `CCN(CC)c1nc2c(Br)c(Br)c(Br)c3c2n1CCC3` [Example 3I]?
inhibition at 1 µM (CDK8/CyclinC): 85%; IC50 (SW480 cells): 5 µM; inhibition at 1 µM (CDK7/CyclinH/MAT1): 0%; inhibition at 1 µM (CDK1/CyclinB): 0%; inhibition at 1 µM (CDK9/CyclinT): 14%; inhibition at 1 µM (CDK5/p25): 14%; inhibition at 1 µM (CDK2/CyclinE): 0%; IC50 (HCT116 cells): 6.8 µM

What does the source list for `CC1CN(c2nc3c(Br)c(Br)c(Br)c4c3n2CCC4)CCN1` (stereo not drawn) [Example 3P]?
inhibition at 1 µM (CDK8/CyclinC): 88%; IC50 (SW480 cells): 1.4 µM; inhibition at 1 µM (CDK7/CyclinH/MAT1): 16%; inhibition at 1 µM (CDK1/CyclinB): 8%; inhibition at 1 µM (CDK9/CyclinT): 22%; inhibition at 1 µM (CDK5/p25): 0%; inhibition at 1 µM (CDK2/CyclinE): 5%; IC50 (HCT116 cells): 9.3 µM

For `OC1CCN(c2nc3c(Br)c(Br)c(Br)c4c3n2CCC4)CC1` [Example 3A, 1-(7,8,9-tribromo-5,6-dihydro-4H-imidazo[4,5,1-ij]quinolin-2-yl)piperidin-4-ol], which inhibition at 1 µM (CDK8/CyclinC) is on record?
Its inhibition at 1 µM is 61%.

And the inhibition at 1 µM (CDK7/CyclinH/MAT1)?
Its inhibition at 1 µM is 3%.

What about the inhibition at 1 µM (CDK1/CyclinB) of the same compound?
The inhibition at 1 µM was 0%.

What about the inhibition at 1 µM (CDK9/CyclinT) of the same compound?
Its inhibition at 1 µM is 1%.

What about the inhibition at 1 µM (CDK5/p25) of the same compound?
The inhibition at 1 µM was 0%.

What about the inhibition at 1 µM (CDK2/CyclinE) of the same compound?
Its inhibition at 1 µM is 4%.

For `Brc1c(Br)c2c3c(nc(N4CCNCC4)n3CCC2)c1I` [Example 1Y], which inhibition at 1 µM (CDK8/CyclinC) is on record?
The inhibition at 1 µM was 100%.

And the IC50 (SW480 cells)?
Its IC50 is 0.7 µM.

What about the inhibition at 1 µM (CDK7/CyclinH/MAT1) of the same compound?
The inhibition at 1 µM was 0%.

And the inhibition at 1 µM (CDK1/CyclinB)?
The inhibition at 1 µM was 32%.

What about the inhibition at 1 µM (CDK9/CyclinT) of the same compound?
Its inhibition at 1 µM is 39%.

And the inhibition at 1 µM (CDK5/p25)?
Its inhibition at 1 µM is 4%.

And the inhibition at 1 µM (CDK2/CyclinE)?
Its inhibition at 1 µM is 11%.

What about the IC50 (HCT116 cells) of the same compound?
Its IC50 is 1.3 µM.

With `Cc1c(Br)c(Br)c2c3c1nc(C1CCN(C)CC1)n3CCC2` [Example 7A, 7,8-dibromo-9-methyl-2-(1-methylpiperidin-4-yl)-5,6-dihydro-4H-imidazo[4,5,1-ij]quinoline hydrochloride] as the compound, how does the inhibition at 1 µM (CDK8/CyclinC) read?
The inhibition at 1 µM was 92%.

What about the IC50 (SW480 cells) of the same compound?
The IC50 was 1.3 µM.

What about the inhibition at 1 µM (CDK7/CyclinH/MAT1) of the same compound?
Its inhibition at 1 µM is 0%.

And the inhibition at 1 µM (CDK1/CyclinB)?
The inhibition at 1 µM was 0%.

And the inhibition at 1 µM (CDK9/CyclinT)?
The inhibition at 1 µM was 19%.

What about the inhibition at 1 µM (CDK5/p25) of the same compound?
The inhibition at 1 µM was 0%.

What about the inhibition at 1 µM (CDK2/CyclinE) of the same compound?
The inhibition at 1 µM was 6%.

What about the IC50 (HCT116 cells) of the same compound?
The IC50 was 1.3 µM.

What does the source list for `O=[N+]([O-])c1c(Br)c(Br)c2c3c1nc(N1CCNCC1)n3CCC2` [Example 1X]?
inhibition at 1 µM (CDK8/CyclinC): 71%; IC50 (SW480 cells): 1.4 µM; inhibition at 1 µM (CDK7/CyclinH/MAT1): 0%; inhibition at 1 µM (CDK1/CyclinB): 15%; inhibition at 1 µM (CDK9/CyclinT): 9%; inhibition at 1 µM (CDK5/p25): 27%; inhibition at 1 µM (CDK2/CyclinE): 8%; IC50 (HCT116 cells): 6.7 µM

What does the source list for `Cc1c(Br)c(Br)c2c3c1nc(C1CCNCC1)n3CCC2` [Example 7C]?
inhibition at 1 µM (CDK8/CyclinC): 83%; IC50 (SW480 cells): 0.9 µM; inhibition at 1 µM (CDK7/CyclinH/MAT1): 0%; inhibition at 1 µM (CDK1/CyclinB): 0%; inhibition at 1 µM (CDK9/CyclinT): 20%; inhibition at 1 µM (CDK5/p25): 0%; inhibition at 1 µM (CDK2/CyclinE): 7%; IC50 (HCT116 cells): 1.1 µM

Which inhibition at 1 µM (CDK8/CyclinC) does the source give for `CN1CCN(c2nc3c(Br)c(Br)c(Br)c4c3n2CCC4)CC1` [Example 3M] here?
Its inhibition at 1 µM is 75%.

What about the IC50 (SW480 cells) of the same compound?
Its IC50 is 2.3 µM.

What about the inhibition at 1 µM (CDK7/CyclinH/MAT1) of the same compound?
The inhibition at 1 µM was 0%.

And the inhibition at 1 µM (CDK1/CyclinB)?
Its inhibition at 1 µM is 7%.

And the inhibition at 1 µM (CDK9/CyclinT)?
The inhibition at 1 µM was 17%.

And the inhibition at 1 µM (CDK5/p25)?
Its inhibition at 1 µM is 36%.

And the inhibition at 1 µM (CDK2/CyclinE)?
The inhibition at 1 µM was 2%.

What about the IC50 (HCT116 cells) of the same compound?
Its IC50 is 1.2 µM.

Source: patent publication US9745299B2, “Substituted tricyclic benzimidazoles as kinase inhibitors” (SELVITA SA, priority 2012, dated 2017)
